Where “and” joins values, the source holds several entries; their conditions need not be identical. Equal entries are not always repeated. Entries after “also recorded” stand apart in the source; their conditions may differ.
Tests used:
[1] = Stability of Physostigmine Free Base in Aqueous Solution (and in ethanol, isopropyl myristate), HPLC; assay type: physicochemical
Protocol: Relative stability of physostigmine free base in neutral or alkaline solution was determined as follows. Methanolic solution of physostigmine free base was acidified with a few drops of hydrochloric acid to lower the pH to about 3-6. […] Analysis was performed using HPLC Nova Pak 4-C18 column and a mobile phase consisting of:
0.63 g 85% Phosphorous Acid
0.96 g Sodium pentasulphonate
In the same manner, stability of physostigmine free base in neutral or slightly acidified water was determined and is shown in FIG. 2. […] In ethanol solution, 5% of the physostigmine free base was lost after 7 days and 10% after 27 days. At this rate of degradation, a patch would have lost 72% of its active ingredient in one year and 92% in two years.

skin of rabbits = experiment: In Vivo Test of Physostigmine Free Base Patches (rabbit skin flux, 23 hours)
Protocol: Pellethane™ 2363-80AE (24.4 g) was added to a solution of 101.3 g of THF containing 2.903 g of physostigmine free base and 2.951 g of isopropyl myristate and stirred until a clear solution was formed. After evaporation of the THF solvent, the liquid cast film of 2000 μm produced a dry matrix film 180-230 μm thick. A solution of Avery adhesive 460, containing 10 wt % isopropyl myristate was cast on the drug/polymer matrix film to produce an adhesive layer approximately 801 μm thick. The film was finally overlaid with a release liner film 1022 available from 3M Company and patches with an area of 7.92 cm^2 were cut from the laminated structure. These patches were weighed, heat sealed into polyethylene-foil pouches and stored until use.
The patches were then placed on the skin of rabbits from which the hair had been carefully clipped, after 23 hours, the patches were removed and the in vivo skin fluxes determined and summarized in Table II.

[2] = Stability of Physostigmine Free Base in Polymer Matrix (patch storage, HPLC recovery); assay type: physicochemical; conditions: for Weight of Physostigmine free base Recovered: polyurethane patch, n = 3
Protocol: Increased stability of physostigmine free base in polymer matrices over solutions is shown in the following experiments. Patches containing physostigmine free base in a polymer matrix were prepared by dissolving 18 g of a polyether based polyurethane produced by Dow under the name Pellethane™ grade 2363-80AE, 2.0 g physostigmine free base and 2.0 g isopropyl myristate in 80 g THF. The solution was allowed to stand until clear. A second identical lot of polymer/drug solution was prepared containing 0.02 g of acetyl cystine. Clear solutions were cast onto the reverse side of a polyester-based release liner available from 3M Company of Minneapolis under the trade name Scotch™ 1002. After evaporation of the THF solvent, the liquid cast film of 2000 μm produced a dry matrix film 200-230 μm thick. Patches with an area of 7.9 cm^2 were cut from these laminated structures, packaged in polyethylene foil pouches and stored at room temperature and at 45° C.
Three patches from each lot were tested for physostigmine free base content immediately after manufacture and after 7 and 25 days of storage at room temperature and at 45° C. Once the backing was removed from the patch, the drug-containing film was weighed and then dissolved in 25 g of THF, followed by dilution with 25 g on methanol. Precipitated Pellethane™ was filtered from the solution before injection into the HPLC. Average amounts of physostigmine free base recovered from the patches, with and without acetyl cysteine, are given in Table I. Theoretical drug loadings were 17.2 and 16.2 mg for the stabilized and unstabilized patches, respectively. Scatter in the weight data can be attributed to variation in film weights and analytical errors amounting to as much as ±10%.

long-term memory = conditions: Davis et al., Science 201, 272 (1978); cited from earlier work
[3] = tablets, oral dosage; cited from earlier work
tardive dyskinesia = conditions: American Journal of Psychiatry, 134(7), 769-774; cited from earlier work
[4] = systemic use; cited from earlier work
[5] = test system: skeletal muscle contraction; conditions: background, myasthenia gravis; cited from earlier work
[6] = individual patch (patch 1-12), 23 hours on rabbit skin

## CNC(=O)Oc1ccc2c(c1)[C@]1(C)CCN(C)[C@@H]1N2C [Physostigmine free base]
[1]; ethanol solution, after 7 days, read-out: physostigmine free base lost in ethanol solution
  degraded at 168 h: 5%
[1]; ethanol solution, after 27 days, read-out: physostigmine free base lost in ethanol solution
  degraded at 648 h: 10%
[1]; methanolic solution acidified with HCl to pH about 3-6, after one or two hours
  appearance of degradation (pink solution, rubreserine): became pink due to accumulation of the degradation product rubreserine; also recorded: appearance of degradation products of the pink solution
[1]; neutral water, within 30 days, same storage conditions, FIG. 2
  loss of initial drug in neutral solution: degrades rapidly with more than half of the initial drug gone
[1]; room temperature, pH 3, FIG. 2
  stability in slightly acidified water: more stable, and slightly pink
[1]; solvents ethanol and isopropyl myristate, compared with unbuffered and acidified water
  rate of degradation in ethanol and isopropyl myristate: slower than with unbuffered water but faster than with acidified water
Skin of rabbits; Average of patches 1-12
  Drug Delivered ΔMass: 14.0 mg
  Drug Delivered ΔMass (%): 69%
  Drug Remaining in Patch: 6.3 mg
  ΔMass/time: 0.61 mg/h
Skin of rabbits; Average of patches 1-12, patch area 7.9 cm^2
  Average Total Flux: 77 μg/cm^2 · hr
Skin of rabbits; [6]
  Drug Delivered ΔMass: 15.0 mg and 14.0 mg and 15.7 mg and 12.0 mg and 16.0 mg and 12.8 mg and 14.3 mg and 13.7 mg and 15.2 mg and 12.7 mg and 11.8 mg
  Drug Delivered ΔMass (%): 67% and 69% and 70% and 71% and 68%
  ΔMass/time: 0.65 mg/h and 0.61 mg/h and 0.68 mg/h and 0.52 mg/h and 0.70 mg/h and 0.56 mg/h and 0.62 mg/h and 0.60 mg/h and 0.66 mg/h and 0.55 mg/h and 0.51 mg/h
Skin of rabbits; individual patch (patch 1-12), 23 hours on rabbit skin, measured by HPLC
  Drug Remaining in Patch: 7.4 mg and 6.8 mg and 7.1 mg and 5.2 mg and 6.7 mg and 6.2 mg and 6.5 mg and 5.7 mg and 4.9 mg
Skin of rabbits; individual patch (patch 1-12), patch area 7.9 cm^2, 23 hours on rabbit skin
  Average Total Flux: 82 μg/cm^2 · hr and 77 μg/cm^2 · hr and 86 μg/cm^2 · hr and 66 μg/cm^2 · hr and 88 μg/cm^2 · hr and 71 μg/cm^2 · hr and 78 μg/cm^2 · hr and 75 μg/cm^2 · hr and 83 μg/cm^2 · hr and 70 μg/cm^2 · hr and 64 μg/cm^2 · hr
Skin of rabbits; over the 23 hour period
  drug delivered: approximately 70%
Skin of rabbits; text after Table II
  Average Physostigmine free base flux: 160 μg/cm^2 ·h
[2]; 25 days at 45° C.
  discoloration of patches: slightly discolored
[2]; No Preservative, 45° C., 0 days
  Weight of Physostigmine free base Recovered: 15.0 mg
[2]; No Preservative, 45° C., 7 days
  Weight of Physostigmine free base Recovered: 16.8 mg
[2]; No Preservative, 45° C., 25 days
  Weight of Physostigmine free base Recovered: 18.5 mg
[2]; No Preservative, Room Temperature, 0 days
  Weight of Physostigmine free base Recovered: 15.0 mg
[2]; No Preservative, Room Temperature, 7 days
  Weight of Physostigmine free base Recovered: 16.5 mg
[2]; No Preservative, Room Temperature, 25 days
  Weight of Physostigmine free base Recovered: 16.8 mg
[2]; With Preservative, 45° C., 0 days
  Weight of Physostigmine free base Recovered: 15.1 mg
[2]; With Preservative, 45° C., 7 days
  Weight of Physostigmine free base Recovered: 16.8 mg
[2]; With Preservative, 45° C., 25 days
  Weight of Physostigmine free base Recovered: 16.8 mg
[2]; With Preservative, Room Temperature, 0 days
  Weight of Physostigmine free base Recovered: 15.1 mg
[2]; With Preservative, Room Temperature, 7 days
  Weight of Physostigmine free base Recovered: 17.3 mg
[2]; With Preservative, Room Temperature, 25 days
  Weight of Physostigmine free base Recovered: 16.8 mg
[2]; patches stored 25 days at 45° C.
  additional peaks in HPLC analysis: no additional peaks were observed
[2]; polyurethane patches, room temperature or 45° C., up to 25 days
  physostigmine free base loss during storage: no measurable physostigmine free base loss

## CNC(=O)Oc1ccc2c(c1)[C@]1(C)CCN(C)[C@@H]1N2C [Physostigmine]
long-term memory
  retrieval of information from long-term memory: improved
  storage of information into long-term memory: significantly enhanced storage of information into long-term memory
[3]
  drug blood levels for multiple oral doses: typical variations in blood concentration ranging from a maxima above the required level (and possibly in the toxic range) to a minima which may be below the effective dose
Tardive dyskinesia
  therapeutic effects on tardive dyskinesia: positive therapeutic effects on tardive dyskinesia
[4]
  therapeutic window: narrow therapeutic window
[5]
  strength of muscular contraction: increased strength of muscular contraction

Reference: US5338548A, “Method for increasing the storage stability of physostigmine” (priority 1993, dated 1994)
